Assay results taken from patent US10426757B2, “Compositions and methods for promoting intestinal stem cell and/or non-stem progenitor cell function” (Whitehead Institute for Biomedical Research, priority 2014, dated 2019).
“Also recorded” adds a separate entry of the source.

Assays:
[1] = tested on: aged crypts; experiment: Stem cell frequency and organoid formation in aged mice; assay type: in vivo, mouse
Protocol: (§1) Isolated ISCs or progenitor cells were centrifuged for 5 minutes at 250 g, re-suspended in the appropriate volume of crypt culture medium (500-1,000 cells μl^−1), then seeded onto 25-30 μl Matrigel™ (Corning 356231 growth factor reduced) containing 1 μM jagged (Ana-Spec) in a flat bottom 48-well plate (Corning 3548). Alternatively, ISCs and Paneth cells were mixed after sorting in a 1:1 ratio, centrifuged, and then seeded onto Matrigel™. The Matrigel™ and cells were allowed to solidify before adding 300 μl of crypt culture medium. The crypt media was changed every second or third day. Organoid bodies were quantified on days 3, 7 and 10 of culture, unless otherwise specified. With respect to the study results presented in FIGS. 14-16, organoid bodies were quantified on day 3-4. In secondary experiments, individual primary organoids were mechanically dissociated and re-plated, or organoids were dissociated for 10 minutes in TrypLE Express at 32° C., re-suspended with SMEM (Life Technologies), centrifuged and re-suspended in cold SMEM with viability dye 7-AAD. Live cells were sorted and seeded onto Matrigel™ as previously described. With respect to the study results presented in FIGS. 14-16, young mice were 2-4 months old. Old mice range from 18-25 months of age. The mice were on a standard chow diet. Mice received a single daily injection with the indicated amount of GW501516 or vehicle in the afternoon. Intestines were harvested the following morning.

[2] = tested on: crypt base columnar cells and transit-amplifying cells; experiment: BrdU incorporation into ISCs and TA-cells; assay type: in vivo, mouse; conditions: GW501516-treated mice, 4 hours after BrdU pulse
Protocol: Mice were housed in the Unit for Laboratory Animal Medicine at the Whitehead Institute for Biomedical Research and Koch Institute for Integrative Cancer Research. Lgr5-EGFP-IRES-CreERT2 mice (strain name: […] B6.129S4-Gt(ROSA)26Sor^tm1Sor/J, stock number 003474) were obtained from the Jackson Laboratory. […] Control mice were age-matched and fed normal chow ad libitum. GW501516 (Enzo) was reconstituted in DMSO at 4.5 mg ml^-1 and diluted 1:10 in a solution of 5% PEG400 (Hampton Research), 5% Tween80 (Sigma), 90% H2O for a daily intraperitoneal injection of 4 mg/kg. Apc exon 14 was excised by tamoxifen suspended in sunflower seed oil (Spectrum […]) at a concentration of 10 mg ml^-1, and 250 μl per 25 g of body weight was administered by intraperitoneal injection to mice twice over 4 days before harvesting tissue. BrdU was prepared at 10 mg ml^-1 in PBS, passed through 0.22 μm filter and injected at 100 mg kg^-1. As previously described^5, tissues were fixed in 10% formalin, paraffin embedded and sectioned. Antigen retrieval was performed with Borg Decloaker RTU solution (Biocare Medical) in a pressurized Decloaking Chamber (Biocare Medical) for 3 minutes. […]

[3] = tested on: β-catenin; experiment: β-catenin nuclear localization by immunostaining; assay type: in vivo, mouse; conditions: GW501516-treated mice vs vehicle
[4] = tested on: Lgr5-GFP^low progenitors; experiment: Organoid formation by sorted Lgr5-GFP^low progenitors; assay type: cell-based, mouse; conditions: progenitors from GW501516-treated mice, vs vehicle
Protocol: as §1, with “described.” for “described. With respect to the study results presented in FIGS. 14-16, young mice were 2-4 months old. Old mice range from 18-25 months of age. The mice were on a standard chow diet. Mice received a single daily injection with the indicated amount of GW501516 or vehicle in the afternoon. Intestines were harvested the following morning.”

[5] = tested on: Olfm4+ ISCs and Cryptdin 4+ Paneth cells; experiment: In situ hybridization for Olfm4 and Cryptdin 4, proximal jejunum; assay type: in vivo, mouse; conditions: GW501516-treated mice vs vehicle
Excerpt: The in situ hybridization probes used in this study correspond to expressed sequence tags or fully sequenced cDNAs obtained from Open Biosystems. The accession numbers (IMAGE mouse cDNA clone in parenthesis) for these probes are as follows: mouse Olfm4 BC141127 (9055739), mouse Cryptdin 4 BC134360 (40134597). Both sense and antisense probes were generated to ensure specificity by in vitro transcription using DIG RNA labelling mix (Roche) according to the manufacturer's instructions and to previously published detailed methods.^24,44

[6] = tested on: Lgr5-GFP^hi ISCs; experiment: Organoid formation by sorted Lgr5-GFP^hi ISCs with or without Paneth cells; assay type: cell-based, mouse; conditions: ISCs from GW501516-treated mice, no Paneth cells, vs vehicle; listed as GW501515
Protocol: as §1, with “described.” for “described. With respect to the study results presented in FIGS. 14-16, young mice were 2-4 months old. Old mice range from 18-25 months of age. The mice were on a standard chow diet. Mice received a single daily injection with the indicated amount of GW501516 or vehicle in the afternoon. Intestines were harvested the following morning.”

[7] = tested on: small intestinal crypts; experiment: Crypt organoid-forming (clonogenicity) assay in 3-D culture; assay type: cell-based, mouse; conditions: crypts from GW501516-treated mice vs vehicle

With `Cc1cc(SCc2sc(-c3ccc(C(F)(F)F)cc3)nc2C)ccc1OCC(=O)O` [GW501516, 2-[2-methyl-4-[[4-methyl-2-[4-(trifluoromethyl)phenyl]-1,3-thiazol-5-yl]methylsulfanyl]phenoxy]acetic acid] the “organoid formation of co-cultured ISCs and Paneth cells from aged animals” value ([1]; GW501516 vs old vehicle, day 3) was “significantly boosts organoid formation”, the “frequency of organoid formation in aged crypts” value ([1]; aged mice, GW501516 treatment) was “increases the frequency of organoid formation” and the “frequency of stem cells” value ([1]; aged mice, GW501516 treatment) was “increases the frequency of stem cells”. For the same molecule, the “proliferation of CBC cells and transit-amplifying cells” value [2] was “augmented; also recorded: enhanced the proliferation”, the “nuclear β-catenin in stem and progenitor cells of crypts (intestinal sections)” value [3] was “increased nuclear β-catenin localization” and the “nuclear β-catenin localization in flow sorted ISCs and progenitors” value [3] was “increased nuclear β-catenin localization”. For the same molecule, the “nuclear β-catenin in stem and progenitor cells of crypts (intestinal sections)” value ([3]; listed as PPAR-δ agonist) was “greater percentage”, the “nuclear β-catenin localization in flow sorted ISCs and progenitors” value ([3]; listed as PPAR-δ agonist) was “more nuclear β-catenin accumulation” and the “organoid-initiating capacity of Lgr5-GFP^low progenitors” value [4] was “possess the potential to autonomously form organoid bodies; also recorded: conferred organoid-initiating capacity”. For the same molecule, the “organoid-initiating capacity of Lgr5-GFP^low progenitors” value ([4]; listed as GW501515) was “sufficient to enhance”, the “organoid-initiating capacity of Lgr5-GFP^low progenitors” value ([4]; listed as PPAR-δ agonist) was “capable of forming organoids” and the “Cryptdin 4+ Paneth cell numbers” value [5] was “no impact; also recorded: remained unchanged”. For the same molecule, the “Olfm4+ ISC numbers per jejunal crypt” value [5] was “augmented; also recorded: increased”, the “Paneth cell-independent organoid-initiating capacity of Lgr5-GFP^hi ISCs” value [6] was “sufficient to enhance” and the “organoid-forming capacity of intestinal crypts” value [7] was “more organoids; also recorded: boosted the organoid-forming capacity”.
